Reference: US6514997B2, “Antipicornaviral compounds and compositions, their pharmaceutical uses, and materials for their synthesis” (Agouron Pharmaceuticals, Inc., priority 1999, dated 2003)
Where two headings read alike, the source gives them in different places.

How the values were obtained:
[1] = Cytotoxicity (CC50) in uninfected MRC-5 cells, XTT dye reduction; type: cell-based, human; conditions: human, MRC-5 cells, uninfected (mock-infected)
Summary of the method: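 MRC-5 cells in MEM with 10% FBS, infected at m.o.i. 0.003 or 0.004 or mock-infected, seeded 1×10^4 cells/well with compound for four days. Protection and cytotoxicity read by XTT/PMS formazan at 450/650 nm. TI = CC50/EC50.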

[2] = system: strains of human rhinovirus (HRV); test: Antirhinoviral H1-HeLa cell culture assay (XTT cell protection, EC50), other HRV strains; type: cell-based, human rhinovirus in H1-HeLa cells; conditions: read-out: EC50
Summary of the method: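 Protection of H1-HeLa cells from rhinovirus was scored two days post-infection via XTT dye reduction read at 450/650 nm, alongside mock-infected cells for toxicity. CC50/EC50 gives the therapeutic index.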

[3] = Cytotoxicity (CC50) in mock-infected H1-HeLa cells, XTT dye reduction; type: cell-based, human; conditions: human, H1-HeLa cells; for CC50: line of CVB2; for CC50 at 1 day: line of CVB3
Summary of the method: (§1)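 XTT dye reduction (formazan, 450/650 nm) in H1-HeLa cells, mock-infected, gave CC50.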

H1-HeLa cells = test: as above; type: cell-based, human
Summary of the method: as §1

coxsackievirus B5 (CVB5) = test: Anticoxsackieviral cell culture assay (EC50), CVB5; type: cell-based; conditions: Enterovirus B
echovirus 9 (ECHO-9) = test: Anti-echoviral cell culture assay (EC50), ECHO-9; type: cell-based; conditions: Enterovirus B
[4] = Human rhinovirus sp., H1-HeLa, HRV-Hanks
[5] = Human rhinovirus sp., HRV3, H1-HeLa, HRV-3
[6] = Human rhinovirus sp., HRV9, H1-HeLa, HRV-9
[7] = Human rhinovirus sp., HRV10, H1-HeLa, HRV-10
[8] = Human rhinovirus sp., HRV11, H1-HeLa, HRV-11
[9] = Human rhinovirus sp., HRV13, H1-HeLa, HRV-13
[10] = Human rhinovirus sp., HRV16, H1-HeLa, HRV-16
[11] = Human rhinovirus sp., HRV19, H1-HeLa, HRV-19
[12] = Human rhinovirus sp., HRV25, H1-HeLa, HRV-25
[13] = Human rhinovirus sp., HRV39, H1-HeLa, HRV-39
[14] = Human rhinovirus sp., HRV78, H1-HeLa, HRV-78
[15] = Human rhinovirus sp., HRV87, H1-HeLa, HRV-87
[16] = uninfected (mock-infected), line of CAV-21

Structure (SMILES)	EC50 ([2]; H1-HeLa, HRV-2) [nM]	EC50 ([2]; H1-HeLa, HRV-23) [nM]	EC50 [2, 4] [nM]	EC50 [2, 5] [nM]	EC50 [2, 6] [nM]	EC50 [2, 8] [nM]	EC50 [2, 9] [nM]	EC50 [2, 10] [nM]	EC50 [2, 11] [nM]	EC50 [2, 12] [nM]	EC50 [2, 13] [nM]	EC50 [2, 14] [nM]	EC50 [2, 15] [nM]	CC50 at 2 days ([3]; mock-infected, line of HRV-14) [µM]	CC50 at 2 days [3, 16] [µM]	CC50 ([3]; uninfected (mock-infected)) [µM]	CC50 at 1 day ([3]; uninfected (mock-infected)) [µM]	CC50 (H1-HeLa cells; line of CVB5) [µM]	CC50 (H1-HeLa cells; line of HRV-2) [µM]	CC50 (H1-HeLa cells; line of HRV-3) [µM]	also measured
CCOC(=O)/C=C/[C@H](C[C@@H]1CCNC1=O)NC(=O)[C@H](CC)n1cccc(NC(=O)c2cc(C)on2)c1=O [Compound 26, trans-(2′S,3″″S,4S)-4-(2′-{3″-[(5′″-Methylisoxazole-3′″-carbonyl)amino]-2″-oxo-2″H-pyridin-1″-yl}butyrylamino)-5-(2″″-oxopyrrolidin-3″″-yl)pent-2-enoic Acid Ethyl Ester]	16	40	54	29	45	4	58	50	65	102	47	57	21	> 10	> 10	> 10	> 10	> 10	> 10	> 10	CC50 at 4 days ([1]; line of ECHO-11): > 10 µM; EC50 ([2]; H1-HeLa, HRV-1A): 14 nM; EC50 [2, 7]: 27 nM; CC50 (H1-HeLa cells; line of HRV-1A): > 10 µM; CC50 (H1-HeLa cells; line of HRV-9): > 10 µM; CC50 (H1-HeLa cells; line of HRV-10): > 10 µM; CC50 (H1-HeLa cells; line of HRV-11): > 10 µM; CC50 (H1-HeLa cells; line of HRV-13): > 10 µM; CC50 (H1-HeLa cells; line of HRV-16): > 10 µM; CC50 (H1-HeLa cells; line of HRV-19): > 10 µM; CC50 (H1-HeLa cells; line of HRV-23): > 10 µM; CC50 (H1-HeLa cells; line of HRV-25): > 10 µM; CC50 (H1-HeLa cells; line of HRV-39): > 10 µM; CC50 (H1-HeLa cells; line of HRV-78): > 10 µM; CC50 (H1-HeLa cells; line of HRV-87): > 10 µM; CC50 (H1-HeLa cells; line of HRV-Hanks): > 10 µM; EC50 (coxsackievirus B5 (CVB5)): 18 nM; EC50 (echovirus 9 (ECHO-9)): 15 nM
CCOC(=O)/C=C/[C@H](C[C@@H]1CCNC1=O)NC(=O)[C@H](Cc1ccc(F)c(F)c1)n1cccc(NC(=O)c2cc(C)on2)c1=O [Compound 33, trans-(2′S,3′″″S,4S)-4-(3′-(3″,4″-Difluorophenyl)-2′-{3′″-[(5″″-methylisoxazole-3″″-carbonyl)amino]-2′″-oxo-2′″H-pyridin-1′″-yl}propionylamino)-5-(2′″″-oxopyrrolidin-3′″″-yl)pent-2-enoic Acid Ethyl Ester]	3	3	5	3	15	3	14	6	4	28	4	5	5	> 10	> 10	> 10	> 10	> 10	> 10	> 10	CC50 at 4 days ([1]; line of ECHO-11): > 10 µM; CC50 (H1-HeLa cells; line of HRV-9): > 10 µM; CC50 (H1-HeLa cells; line of HRV-11): > 10 µM; CC50 (H1-HeLa cells; line of HRV-13): > 10 µM; CC50 (H1-HeLa cells; line of HRV-16): > 10 µM; CC50 (H1-HeLa cells; line of HRV-19): > 10 µM; CC50 (H1-HeLa cells; line of HRV-23): > 10 µM; CC50 (H1-HeLa cells; line of HRV-25): > 10 µM; CC50 (H1-HeLa cells; line of HRV-39): > 10 µM; CC50 (H1-HeLa cells; line of HRV-78): > 10 µM; CC50 (H1-HeLa cells; line of HRV-87): > 10 µM; CC50 (H1-HeLa cells; line of HRV-Hanks): > 10 µM; EC50 (coxsackievirus B5 (CVB5)): 25 nM; EC50 (echovirus 9 (ECHO-9)): 3 nM
C#CC[C@@H](C(=O)N[C@H](/C=C/C(=O)OCC)C[C@@H]1CCNC1=O)n1cccc(NC(=O)c2cc(C)on2)c1=O [Compound 31, trans-(2′S,3″″S,4S)-4-(2′-{3″-[(5′″-Methyl-isoxazole-3′″-carbonyl)amino]-2″-oxo-2″H-pyridin-1″-yl}pent-4′-ynoyl-amino)-5-(2″″-oxopyrrolidin-3″″-yl)pent-2-enoic Acid Ethyl Ester]	13	42	49	21	44	5	60	38	50	87	43	61	21	> 10	> 10	> 10	> 10	> 10	> 10	> 10	CC50 at 4 days ([1]; line of ECHO-6): > 10 µM; EC50 ([2]; H1-HeLa, HRV-1A): 36 nM; EC50 [2, 7]: 48 nM; CC50 (H1-HeLa cells; line of HRV-1A): > 10 µM; CC50 (H1-HeLa cells; line of HRV-9): > 10 µM; CC50 (H1-HeLa cells; line of HRV-10): > 10 µM; CC50 (H1-HeLa cells; line of HRV-11): > 10 µM; CC50 (H1-HeLa cells; line of HRV-13): > 10 µM; CC50 (H1-HeLa cells; line of HRV-16): > 10 µM; CC50 (H1-HeLa cells; line of HRV-19): > 10 µM; CC50 (H1-HeLa cells; line of HRV-23): > 10 µM; CC50 (H1-HeLa cells; line of HRV-25): > 10 µM; CC50 (H1-HeLa cells; line of HRV-39): > 10 µM; CC50 (H1-HeLa cells; line of HRV-78): > 10 µM; CC50 (H1-HeLa cells; line of HRV-87): > 10 µM; CC50 (H1-HeLa cells; line of HRV-Hanks): > 10 µM; EC50 (coxsackievirus B5 (CVB5)): 47 nM; EC50 (echovirus 9 (ECHO-9)): 12 nM
